{"source": "patent EP0361341A2", "about": "“Therapeutics for aids based on inhibitors of HIV protease” (MILES INC., priority 1988, dated 1990)", "test_system": "HIV-I", "experiment": "p24 antigen capture assay in HIV-I infected H9 lymphocytes (in vivo assay of HIV protease activity, Example 53)", "format": "cell-based", "details": "H9 lymphocytes infected with HIV-I, three days at 37 C, relative to infected, untreated cultures; read-out: concentration showing 50% inhibition of p24 formation", "experimental": "A p24 capture assay (see Example 50 hereinbelow) provides an \"in vivo\" method for determining HIV-protease activity. The inhibitor is added to cells infected with HIV, […]. Inhibition of propagation of HIV-protease in cells is measured by the absence or presence of p24, which is generated by HIV protease.\nH9 lymphocytes (1x 10^7 cells/ml) were incubated in the presence or absence of HIV-I for 1 hour at 37 C. Cells were washed thoroughly to remove unadsorbed virions and resuspended at 4x10^5 cells/ml in culture medium. Aliquots (one milliliter) were placed in wells of 24 well culture plates containing an equal volume of test compound (diluted in culture medium). After incubation for three days at 37 C, cell density of uninfected cultures was determined to assess toxicity of test compound. A p24 antigen capture assay was used to determine the level of HIV infection in HIV treated cultures. The ability of test compounds to inhibit HIV replication was measured at different concentrations of test compound relative to infected, untreated cultures."}
{"smiles": "CC[C@H](C)[C@H](NC(=O)[C@@H]1CCCN1CC(Cc1ccccc1)NC(=O)[C@H](CC(N)=O)NC(=O)[C@H](Cc1ccccc1)NC(=O)OC(C)(C)C)C(=O)OCc1ccccc1", "note": "(stereo partly drawn) [Example 25, N-[N-[2-[[N2-[N-[(1,1-Dimethylethoxy)carbonyl]-L-phenylalanyl]-L-asparagyl]amino]-3-phenylpropyl]-L-prolyl]-L-isoleucinbenzylester]", "values": [{"measurement": "IC50", "result": 200, "unit": "µM"}]}
